Values joined by “and” are separate entries in the source; they are usually repeats but may differ in a detail not shown here. Equal entries are not always repeated. Toxic doses and inconclusive results are not listed. The calls were made as follows: active = survival T/C of 150% or more; inactive = T/C below 125% in these data.
System: P388 leukemia ip, CD2F1 mice, survival T/C
Assay: NCI In Vivo Anticancer Drug Screen. Data for tumor model P388 Leukemia (intraperitoneal) in CD2F1 (CDF1) mice
Settings: endpoint: median survival time, higher = longer survival
Procedure, shortened: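 Mice carrying the transplanted tumor received test compound or vehicle. Survival was recorded in each group, and the value is the treated-group measurement divided by that of the vehicle-treated control group.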

[1] = dose: 25.0 mg/kg/injection, schedule: Q01DX005 (ip), vehicle: Klucel (hydroxypropylcellulose) (HPC)
[2] = dose: 50.0 mg/kg/injection, schedule: Q01DX005 (ip), vehicle: Klucel (hydroxypropylcellulose) (HPC)
[3] = dose: 100.0 mg/kg/injection, schedule: Q01DX005 (ip), vehicle: Klucel (hydroxypropylcellulose) (HPC)
[4] = dose: 200.0 mg/kg/injection, schedule: Q01DX005 (ip), vehicle: Klucel (hydroxypropylcellulose) (HPC)
[5] = dose: 60.0 mg/kg/injection, schedule: Q01DX005 (ip), vehicle: saline with Tween-80
[6] = dose: 120.0 mg/kg/injection, schedule: Q01DX005 (ip), vehicle: saline with Tween-80
[7] = dose: 240.0 mg/kg/injection, schedule: Q01DX005 (ip), vehicle: saline with Tween-80
[8] = dose: 50.0 mg/kg/injection, schedule: Q01DX009 (ip), vehicle: Klucel (hydroxypropylcellulose) (HPC)
[9] = dose: 100.0 mg/kg/injection, schedule: Q01DX009 (ip), vehicle: Klucel (hydroxypropylcellulose) (HPC)
[10] = dose: 100.0 mg/kg/injection, schedule: Q04DX003 (ip), vehicle: saline
[11] = dose: 200.0 mg/kg/injection, schedule: Q04DX003 (ip), vehicle: saline
[12] = dose: 400.0 mg/kg/injection, schedule: Q04DX003 (ip), vehicle: saline
[13] = dose: 50.0 mg/kg/injection, schedule: Q01DX009 (ip), vehicle: saline
[14] = dose: 100.0 mg/kg/injection, schedule: Q01DX009 (ip), vehicle: saline with Tween-80
[15] = dose: 200.0 mg/kg/injection, schedule: Q01DX009 (ip), vehicle: saline with Tween-80
[16] = dose: 50.0 mg/kg/injection, schedule: Q01DX009 (ip), vehicle: saline with Tween-80
[17] = dose: 100.0 mg/kg/injection, schedule: Q04DX002 (ip), vehicle: saline with Tween-80
[18] = dose: 200.0 mg/kg/injection, schedule: Q04DX002 (ip), vehicle: saline with Tween-80
[19] = dose: 50.0 mg/kg/injection, schedule: Q01DX005 (ip), vehicle: saline
[20] = dose: 100.0 mg/kg/injection, schedule: Q01DX005 (ip), vehicle: saline
[21] = dose: 200.0 mg/kg/injection, schedule: Q01DX005 (ip), vehicle: saline

Measured: T/C

CCOC(=O)c1ccc(NC(N)=O)cc1
inactive: dose: 25.0 mg/kg/injection, schedule: Q01DX009 (ip), vehicle: other 101 % of control | dose: 50.0 mg/kg/injection, schedule: Q01DX009 (ip), vehicle: other 102 % of control | dose: 100.0 mg/kg/injection, schedule: Q01DX009 (ip), vehicle: other 98 % of control | dose: 200.0 mg/kg/injection, schedule: Q01DX009 (ip), vehicle: other 98 % of control | dose: 400.0 mg/kg/injection, schedule: Q01DX009 (ip), vehicle: other 93 % of control

CCc1c2c(cc3c1[nH]c1ccccc13)C(=O)NC2=O
inactive: [1] 99 % of control | [2] 90 % of control and 92 % of control | [3] 97 % of control | [4] 94 % of control

CC(=O)N1CCc2ccccc2C1C1c2ccccc2CCN1C(C)=O (centres undefined)
inactive: dose: 100.0 mg/kg/injection, schedule: Q04DX003 (ip), vehicle: Klucel (hydroxypropylcellulose) (HPC) 94 % of control | dose: 200.0 mg/kg/injection, schedule: Q04DX003 (ip), vehicle: Klucel (hydroxypropylcellulose) (HPC) 94 % of control | dose: 400.0 mg/kg/injection, schedule: Q04DX003 (ip), vehicle: Klucel (hydroxypropylcellulose) (HPC) 92 % of control

CNC(=O)Nc1ccc(/C(C)=N/NC(N)=S)cc1
inactive: [5] 96 % of control | [6] 89 % of control

CC(C)Cc1cc(-c2cc(CC(C)C)[nH]n2)n[nH]1
inactive: [5] 106 % of control | [6] 95 % of control | [7] 100 % of control

COc1cc(OCc2ccccc2)c(CC(=O)O)c([N+](=O)[O-])c1
inactive: dose: 100.0 mg/kg/injection, schedule: Q01DX001 (ip), vehicle: saline with Tween-80 100 % of control | dose: 200.0 mg/kg/injection, schedule: Q01DX001 (ip), vehicle: saline with Tween-80 100 % of control | dose: 400.0 mg/kg/injection, schedule: Q01DX001 (ip), vehicle: saline with Tween-80 90 % of control

O=c1nc(-c2ccccc2)sc(=O)[nH]1
inactive: [8] 102 % of control | [9] 111 % of control

CC1C(=O)N(c2ccccc2)c2nc3ccccc3nc21 (centres undefined)
inactive: [10] 88 % of control | [11] 97 % of control | [12] 111 % of control

O=C1C=CC2=C3c4cc(O)c(O)cc4CC3(O)COC2=C1O (centres undefined)
inactive: dose: 6.25 mg/kg/injection, schedule: Q01DX009 (ip), vehicle: saline 102 % of control | dose: 12.5 mg/kg/injection, schedule: Q01DX009 (ip), vehicle: saline 108 % of control | dose: 25.0 mg/kg/injection, schedule: Q01DX009 (ip), vehicle: saline 118 % of control | [13] 108 % of control

CC1CC(=O)OC(C(=O)c2ccccc2)N1c1ccc(C(F)(F)F)cc1N (centres undefined)
inactive: [5] 110 % of control | [6] 108 % of control | [7] 109 % of control

O=C(Cc1nc2ccccc2nc1CC(=O)c1cccnc1)c1cccnc1
inactive: [5] 102 % of control | [6] 93 % of control | [7] 93 % of control

NC=O
inactive: [14] 109 % of control | [10] 100 % of control | [15] 118 % of control | [11] 100 % of control | dose: 400.0 mg/kg/injection, schedule: Q01DX009 (ip), vehicle: saline with Tween-80 118 % of control | [12] 118 % of control

O=c1cccc2n1C[C@H]1C[C@@H]2CN2CCCC[C@H]12
inactive: dose: 6.25 mg/kg/injection, schedule: Q01DX005 (ip), vehicle: saline 99 % of control | dose: 12.5 mg/kg/injection, schedule: Q01DX005 (ip), vehicle: saline 99 % of control

COC(=O)/C=C1\Sc2cc(F)ccc2NC1=O
inactive: [16] 92 % of control | [14] 98 % of control | [15] 100 % of control

COc1cc(C[C@H]2CC(=O)O[C@@H]2CO)cc(OC)c1OC
inactive: dose: 50.0 mg/kg/injection, schedule: Q04DX002 (ip), vehicle: saline with Tween-80 101 % of control | [17] 99 % of control | [18] 96 % of control

COc1ccc(CCN2CN=C(Sc3ccc([N+](=O)[O-])cc3Cl)NC2)cc1OC
inactive: [16] 98 % of control | [14] 98 % of control | [15] 93 % of control

CC(C)CC(=O)NC(C(=O)NC(C(=O)NC(CC(C)C)C(O)CC(=O)NC(C)C(=O)NC(CC(C)C)C(O)CC(=O)O)C(C)C)C(C)C (centres undefined)
inactive: dose: 6.25 mg/kg/injection, schedule: Q01DX009 (ip), vehicle: Klucel (hydroxypropylcellulose) (HPC) 102 % of control | [8] 98 % of control and 122 % of control and 87 % of control | [9] 90 % of control and 95 % of control

COC(=O)c1[nH]c(=O)c(C#N)c(C(=O)OC)c1C(=O)c1ccncc1
inactive: dose: 50.0 mg/kg/injection, schedule: Q01DX005 (ip), vehicle: saline with Tween-80 95 % of control | dose: 100.0 mg/kg/injection, schedule: Q01DX005 (ip), vehicle: saline with Tween-80 92 % of control

Nc1nnc2nc(CC(=O)/C=C/c3ccccc3)c(CC(=O)/C=C/c3ccccc3)nn12
inactive: [19] 98 % of control | [20] 97 % of control | [21] 104 % of control

O=C(c1ccccc1)C(N=Nc1ccccc1)(c1ccccc1)c1ccccc1
inactive: [5] 101 % of control | [6] 118 % of control | [7] 100 % of control

NC(=O)C1=C2NC(=O)c3ccccc3C2C2=C1CCCC2 (centres undefined)
inactive: dose: 12.5 mg/kg/injection, schedule: Q01DX005 (ip), vehicle: Klucel (hydroxypropylcellulose) (HPC) 90 % of control | [1] 92 % of control | [2] 98 % of control and 105 % of control

O=C1CC2c3c(OCc4ccccc4)cc(OCc4ccccc4)cc3OC2O1 (centres undefined)
inactive: dose: 8.75 mg/kg/injection, schedule: Q01DX005 (ip), vehicle: Klucel (hydroxypropylcellulose) (HPC) 88 % of control | dose: 17.5 mg/kg/injection, schedule: Q01DX005 (ip), vehicle: Klucel (hydroxypropylcellulose) (HPC) 91 % of control | dose: 35.0 mg/kg/injection, schedule: Q01DX005 (ip), vehicle: Klucel (hydroxypropylcellulose) (HPC) 88 % of control

NC1(N2SC(S)=C3CCCC=C32)CCCCC1
inactive: [16] 97 % of control | [14] 100 % of control | [15] 105 % of control

O=C(OCc1ccccc1)N1Cc2cc3ccccc3nc2C1
inactive: dose: 100.0 mg/kg/injection, schedule: Q04DX003 (ip), vehicle: saline with Tween-80 103 % of control | dose: 200.0 mg/kg/injection, schedule: Q04DX003 (ip), vehicle: saline with Tween-80 103 % of control | dose: 400.0 mg/kg/injection, schedule: Q04DX003 (ip), vehicle: saline with Tween-80 101 % of control

CN(C(=S=O)c1ccc([N+](=O)[O-])cc1)c1ccccc1
inactive: [13] 100 % of control | dose: 100.0 mg/kg/injection, schedule: Q01DX009 (ip), vehicle: saline 97 % of control | dose: 200.0 mg/kg/injection, schedule: Q01DX009 (ip), vehicle: saline 104 % of control

CC(=O)C1=CN(C)c2ccccc2S1
inactive: [2] 103 % of control | [3] 99 % of control | [4] 108 % of control

CN(C)C1C(=O)C(C(=O)NCNC(C=O)C(O)C(O)C(O)CO)=C(O)C2(O)C(=O)C3=C(O)c4c(O)cccc4C(C)(O)C3CC12 (centres undefined)
inactive: [19] 100 % of control | [20] 99 % of control | [21] 96 % of control

COc1ccc(CSC(=S)Nc2ccc(C)c(C)c2)cc1
inactive: dose: 50.0 mg/kg/injection, schedule: Q01DX009 (ip), vehicle: suspension in saline 99 % of control | dose: 100.0 mg/kg/injection, schedule: Q01DX009 (ip), vehicle: suspension in saline 100 % of control | dose: 200.0 mg/kg/injection, schedule: Q01DX009 (ip), vehicle: suspension in saline 99 % of control

CCCCOP(O)(=S)OCCCC.[Eu]
inactive: [17] 96 % of control | [18] 91 % of control | dose: 400.0 mg/kg/injection, schedule: Q04DX002 (ip), vehicle: saline with Tween-80 90 % of control

CC(=O)c1c(C)cc2cccc(O)c2c1O
inactive: dose: 15.0 mg/kg/injection, schedule: Q01DX005 (ip), vehicle: Klucel (hydroxypropylcellulose) (HPC) 105 % of control | dose: 30.0 mg/kg/injection, schedule: Q01DX005 (ip), vehicle: Klucel (hydroxypropylcellulose) (HPC) 112 % of control | dose: 60.0 mg/kg/injection, schedule: Q01DX005 (ip), vehicle: Klucel (hydroxypropylcellulose) (HPC) 103 % of control | dose: 120.0 mg/kg/injection, schedule: Q01DX005 (ip), vehicle: Klucel (hydroxypropylcellulose) (HPC) 108 % of control
